# Measurements as given in patent US5268374A, “Non-peptide renin inhibitors” (Abbott Laboratories, priority 1991, dated 1993).
# Molecular target: T1, human renal renin (Homo sapiens, UniProt P00797)
# T1 construct: from tissue; host or cells: human kidney (read from the word 'renal'; no preparation is printed)
# T1 sequence (P00797 67-406): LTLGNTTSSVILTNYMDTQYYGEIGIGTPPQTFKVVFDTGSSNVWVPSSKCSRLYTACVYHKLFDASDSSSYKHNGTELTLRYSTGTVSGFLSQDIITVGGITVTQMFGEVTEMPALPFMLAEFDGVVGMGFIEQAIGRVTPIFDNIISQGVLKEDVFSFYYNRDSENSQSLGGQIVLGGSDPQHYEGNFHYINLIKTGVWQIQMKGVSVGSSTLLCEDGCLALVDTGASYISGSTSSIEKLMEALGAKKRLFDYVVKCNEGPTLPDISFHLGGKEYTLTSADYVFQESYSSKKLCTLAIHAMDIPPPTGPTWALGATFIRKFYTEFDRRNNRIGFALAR
# Assay: Inhibition of human renal renin in vitro (angiotensin I formation by radioimmunoassay)
# Assay type: biochemical
# Settings: not given
row,Compound,IC50
1,CCCC[C@H](N[C@@H](Cc1ccccc1)C(=O)N1CCC(OCOC)CC1)C(=O)N[C@@H](CC1CCCCC1)[C@@H](O)C[C@H](C(=O)NCCCn1ccnc1)C(C)C [Example 119],3 nM

# Same assay, conditions: human renal renin, 37 degrees C, pH 6.0; read-out: IC50
row,IC50,Compound
1,2.5 nM,"CCCC[C@H](O[C@@H](Cc1ccccc1)C(=O)N1CCC(OCOC)CC1)C(=O)N[C@@H](CC1CCCCC1)[C@@H](O)C[C@H](C(=O)NCCCN(C)C)C(C)C [Example 117, 2(S)-(1(S)-(4-(Methoxymethoxy)piperidin-1-yl)carbonyl-2-phenyl)ethoxyhexanoic acid amide of 3-(dimethylamino)propyl 5(S)-amino-6-cyclohexyl-4(S)-hydroxy-2(S)-isopropylhexanamide]"
2,2.5 nM,"CCCC[C@H](O[C@@H](Cc1ccccc1)C(=O)N1CCC(OCOC)CC1)C(=O)N[C@@H](CC1CCCCC1)[C@@H](O)CN(C)S(=O)(=O)NC [Example 122, 2(S)-(1(S)-(4-(Methoxymethoxy)piperidin-1-yl)carbonyl-2-phenyl)ethoxyhexanoic acid amide of (2S,3S)-3-amino-4-cyclohexyl-2-hydroxy-1-(methyl(methylsulfamoyl)amino)butane]"
3,2.7 nM,CCCC[C@H](O[C@@H](Cc1ccccc1)C(=O)N1CCC(OCOC)CC1)C(=O)N[C@@H](CC1CCCCC1)[C@@H](O)C[C@H](NC(=O)OCCN(C)C)C(C)C [Example 129]
4,1.4 nM,CCCC[C@H](O[C@@H](Cc1ccccc1)C(=O)N1CCC(OCOC)CC1)C(=O)N[C@@H](CC1CCCCC1)[C@@H](O)C[C@H](NC(=O)OCCN1CCOCC1)C(C)C [Example 130]
5,0.88 nM,CCCC[C@H](O[C@@H](Cc1ccccc1)C(=O)N1CCC(OCOC)CC1)C(=O)N[C@@H](CC1CCCCC1)[C@@H](O)C[C@H](NC(=O)OCCc1ccccn1)C(C)C [Example 131]
6,3.2 nM,"CCCCC(=O)N[C@@H](C[C@H](O)[C@H](CC1CCCCC1)NC(=O)[C@H](CCCC)O[C@@H](Cc1ccccc1)C(=O)N1CCC(OCOC)CC1)C(C)C [Example 132, 2(S)-1(S)-4-(Methoxymethoxy)piperidin-1-yl)carbonyl-2-phenyl)ethoxyhexanoicacid amide of 2(S)-amino-1-cyclohexyl-5(S)-((2-(pentanoyl)amino-3(S)-hydroxy-6-methylheptane]"
7,1.4 nM,CCCC[C@H](O[C@@H](Cc1ccccc1)C(=O)N1CCC(OCOC)CC1)C(=O)N[C@@H](CC1CCCCC1)[C@@H](O)C[C@H](C(=O)NCCC[N+](C)(C)[O-])C(C)C [Example 136]
8,2.7 nM,CCCC[C@H](O[C@@H](Cc1ccccc1)C(=O)N1CCC(OCOC)CC1)C(=O)N[C@@H](CC1CCCCC1)[C@@H](O)[C@@H](O)CN(C)OC [Example 139]
9,1.3 nM,"CCCC[C@H](O[C@@H](Cc1ccccc1)C(=O)N1CCC(OCOC)CC1)C(=O)N[C@@H](CC1CCCCC1)[C@@H](O)CN(C(C)C)S(=O)(=O)NC [Example 142, 2(S)-(1(S)-(4-(Methoxymethoxy)piperidin-1-yl)carbonyl-2-phenyl)ethoxyhexanoic acid amide of (2S,3S)-3-amino-4-cyclohexyl-2-hydroxy-1-(isopropyl(methylsulfamoyl)amino)butane]"
10,4.6 nM,CCCC[C@H](O[C@@H](Cc1ccccc1)C(=O)N1CCC(OCOC)CC1)C(=O)N[C@@H](CC1CCCCC1)[C@@H](O)C(F)(F)[C@H](O)C(C)C [Example 179]
11,3.8 nM,CCCC[C@H](O[C@@H](Cc1ccccc1)C(=O)N1CCC(OCOC)CC1)C(=O)N[C@@H](CC(C)C)[C@@H](O)CC(=O)NCC(C)CC (stereo partly shown) [Example 180]
12,1.8 nM,CCCC[C@H](N[C@@H](Cc1ccccc1)C(=O)N1CCC(OCOC)CC1)C(=O)N[C@@H](CC1CCCCC1)[C@H](O)CC(C(=O)N[C@H](C(=O)NCc1ccccn1)[C@@H](C)CC)C(C)C (stereo partly shown) [Example 181]
